Among the data in ChEMBL document CHEMBL2073945, “Contribution of cholesterol and phospholipids to inhibitory effect of dimethyl-beta-cyclodextrin on efflux function of P-glycoprotein and multidrug resistance-associated protein 2 in vinblastine-resistant Caco-2 cell monolayers” (Pharm Res, 2004) are Activity values, retold here.

The data set has as its target ATP-dependent translocase ABCB1 (Homo sapiens, UniProt P08183). The data set can be described thus: TP_TRANSPORTER: transepithelial transport of Rhodamine 123 (basal to apical) in Caco-2R cells. Type of data set: functional, cell-based. In general terms: Caco-2 cells form a polarised layer with tight junctions and transporters.

Sequence of ATP-dependent translocase ABCB1 (P08183 whole entry): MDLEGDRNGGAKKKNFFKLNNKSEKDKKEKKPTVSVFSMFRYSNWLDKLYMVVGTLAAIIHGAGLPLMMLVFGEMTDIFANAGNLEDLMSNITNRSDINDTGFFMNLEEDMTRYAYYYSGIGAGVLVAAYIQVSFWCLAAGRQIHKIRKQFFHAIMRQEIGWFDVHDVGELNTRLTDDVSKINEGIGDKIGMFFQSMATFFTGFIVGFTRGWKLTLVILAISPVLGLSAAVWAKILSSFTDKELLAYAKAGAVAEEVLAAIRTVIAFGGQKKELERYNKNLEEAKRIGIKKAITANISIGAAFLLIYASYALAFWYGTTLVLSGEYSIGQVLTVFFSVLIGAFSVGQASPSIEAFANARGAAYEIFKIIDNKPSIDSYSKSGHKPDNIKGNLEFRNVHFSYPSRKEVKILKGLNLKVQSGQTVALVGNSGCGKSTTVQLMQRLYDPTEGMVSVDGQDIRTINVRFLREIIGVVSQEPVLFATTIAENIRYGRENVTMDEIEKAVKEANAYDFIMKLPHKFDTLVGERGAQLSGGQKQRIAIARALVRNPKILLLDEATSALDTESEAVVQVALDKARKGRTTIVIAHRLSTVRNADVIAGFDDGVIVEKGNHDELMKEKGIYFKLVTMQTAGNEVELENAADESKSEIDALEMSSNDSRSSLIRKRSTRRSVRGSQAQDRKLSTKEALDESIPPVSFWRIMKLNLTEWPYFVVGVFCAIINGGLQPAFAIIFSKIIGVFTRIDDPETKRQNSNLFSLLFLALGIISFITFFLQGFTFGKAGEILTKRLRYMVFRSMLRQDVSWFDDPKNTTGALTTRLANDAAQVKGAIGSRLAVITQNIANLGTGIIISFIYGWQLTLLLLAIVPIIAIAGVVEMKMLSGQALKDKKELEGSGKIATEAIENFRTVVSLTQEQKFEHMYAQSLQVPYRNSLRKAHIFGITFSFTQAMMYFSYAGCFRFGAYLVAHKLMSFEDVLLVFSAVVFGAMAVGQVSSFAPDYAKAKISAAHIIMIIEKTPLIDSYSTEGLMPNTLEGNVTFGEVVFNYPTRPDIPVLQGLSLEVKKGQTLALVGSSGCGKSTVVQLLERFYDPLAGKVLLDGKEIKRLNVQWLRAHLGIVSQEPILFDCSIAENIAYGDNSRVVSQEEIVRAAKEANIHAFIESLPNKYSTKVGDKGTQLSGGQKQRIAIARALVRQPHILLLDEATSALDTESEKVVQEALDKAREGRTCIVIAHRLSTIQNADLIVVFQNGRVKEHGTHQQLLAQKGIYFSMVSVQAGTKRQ

For `COC[C@H]1O[C@@H]2O[C@H]3[C@H](O)[C@@H](OC)[C@@H](O[C@H]4[C@H](O)[C@@H](OC)[C@@H](O[C@H]5[C@H](O)[C@@H](OC)[C@@H](O[C@H]6[C@H](O)[C@@H](OC)[C@@H](O[C@H]7[C@H](O)[C@@H](OC)[C@@H](O[C@H]8[C@H](O)[C@@H](OC)[C@@H](O[C@H]1[C@H](O)[C@H]2OC)O[C@@H]8COC)O[C@@H]7COC)O[C@@H]6COC)O[C@@H]5COC)O[C@@H]4COC)O[C@@H]3COC`, the Activity entry is “inhibitor [+]”.

As for `CC(O)COC[C@H]1O[C@@H]2O[C@H]3[C@H](O)[C@@H](O)[C@@H](O[C@H]4[C@H](O)[C@@H](O)[C@@H](O[C@H]5[C@H](O)[C@@H](O)[C@@H](O[C@H]6[C@H](O)[C@@H](O)[C@@H](O[C@H]7[C@H](O)[C@@H](O)[C@@H](O[C@H]8[C@H](O)[C@@H](O)[C@@H](O[C@H]1[C@H](O)[C@H]2O)O[C@@H]8COCC(C)O)O[C@@H]7COCC(C)O)O[C@@H]6COCC(C)O)O[C@@H]5COCC(C)O)O[C@@H]4COCC(C)O)O[C@@H]3COCC(C)O` (stereo partly drawn) [2-HYDROXYPROPYL-BETA-CYCLODEXTRIN], the Activity result was “is not an inhibitor [-]”.

As for `COC[C@@H]1O[C@H]2O[C@@H]3[C@@H](O)[C@H](O)[C@H](O[C@@H]4[C@@H](O)[C@H](O)[C@H](O[C@H]5[C@H](OC)[C@@H](O)[C@@H](O[C@@H]6[C@@H](O)[C@H](O)[C@H](O[C@@H]7[C@@H](O)[C@H](O)[C@H](O[C@@H]8[C@@H](O)[C@H](O)[C@H](O[C@@H]1[C@@H](O)[C@@H]2O)O[C@H]8COC)O[C@H]7COC)O[C@H]6COC)O[C@@H]5COC)O[C@H]4COC)O[C@H]3COC`, the Activity entry is “is not an inhibitor [-]”.

Regarding `CCCC(OC(CCC)S(=O)(=O)O)S(=O)(=O)O.OC[C@H]1O[C@@H]2O[C@H]3[C@H](O)[C@@H](O)[C@@H](O[C@H]4[C@H](O)[C@@H](O)[C@@H](O[C@H]5[C@H](O)[C@@H](O)[C@@H](O[C@H]6[C@H](O)[C@@H](O)[C@@H](O[C@H]7[C@H](O)[C@@H](O)[C@@H](O[C@H]8[C@H](O)[C@@H](O)[C@@H](O[C@H]1[C@H](O)[C@H]2O)O[C@@H]8CO)O[C@@H]7CO)O[C@@H]6CO)O[C@@H]5CO)O[C@@H]4CO)O[C@@H]3CO`, the Activity entry is “is not an inhibitor [-]”.
